Columns and labels:
[1] = system: whole blood; experiment: PT assay on sensor with SBQ-PVA immobilized substrate, heparin-spiked whole blood
Procedure: FIGS. 10 and 11 exemplify this concept as follows. A coagulation sensor was directly printed either with a large (FIG. 10) or small (FIG. 11) SBQ-PVA immobilized coagulation substrate. Subsequently, a PT coagulation activator was printed on top of the immobilized substrate matrix. These sensors were then tested with appropriate fluids to assess coagulation time. As with the results from FIGS. 5 and 6, one benefit of printing more of the immobilized substrate matrix is that the increased amount of immobilized substrate matrix led to an increase in pA. Also, when heparin is spiked into the whole blood sample, the clotting times are not as extended as they are expected to be (FIGS. 10 and 11 (response curves 181) (heparin spike) should be more similar to response curves 182 (abnormally long control fluid) clotting times, but are actually behaving more like whole blood without heparin, (response curves 183)). […] Further, applying a larger amount of the immobilizing matrix results in a greater neutralizing effect (e.g., compare the bias between whole blood and whole blood with heparin in FIGS. 10 and 11). […] In both FIGS. 10 and 11, the heparin spiked blood behaves more like unaltered whole blood than it does like an abnormally long control fluid, reflecting that there is an interferent/heparin neutralizing effect.

[2] = cited from earlier work

Row | Molecule | extension of PT clotting time versus whole blood ([1]; heparin 1 IU/mL, smaller print amount of SBQ-PVA neutralizing matrix (FIG. 11)) [%] | extension of PT clotting time versus whole blood ([1]; heparin added to 1 IU/mL, large SBQ-PVA matrix print (FIG. 10)) [%] | solubility in methanol [2]
1 | heparin | 55 | 14 | 
2 | O=c1oc2c(O)c(O)cc3c(=O)oc4c(O)c(O)cc1c4c23 [ellagic acid] |  |  | slightly soluble
